Test results taken from patent US20100047327A1, “Adjuvant for Transdermal or Transmucosal Administration and Pharmaceutical Preparation Containing the Same” (priority 2007, published 2010).

How the values were obtained:
[1] = tested on: OVA specific IgG antibody; experiment: OVA specific IgG antibody titer by ELISA, intracutaneous OVA plus transdermal adjuvant; format: in vivo, BALB/c mouse; conditions: for Antibody titer (×10^4): OVA 10 μg/head intracutaneous, then 25 μL adjuvant applied transdermally, dosing at 0, 2, 4 weeks, data after five weeks; for immune response of the antigen IgG: intracutaneous OVA plus transdermal adjuvant on intact skin, in words
Method: OVA (an antigen: Ovalbumin, Sigma Company) was prepared by dissolving it in physiological saline to give 10 μg/head, and to the OVA alone group, 25 μL of OVA aqueous solution was administered intracutaneously. To the group in which various kinds of adjuvants (lauryl alcohol, oleyl alcohol, isostearyl alcohol, octyl dodecanol, polyethylene glycol monolaurate and Freund complete adjuvant (FCA)) were used in combination, immediately after OVA solution was administered intracutaneously, 25 μL of each adjuvant solution was administered (applied) transdermally on the abdominal skin surface. Administration was carried out 0, 2 and 4 weeks later, and blood collection was carried out 2, 4 and 5 weeks later, and OVA specific IgG antibody titer after 2, 4 and 5 weeks was measured by ELISA.

[2] = Skin irritation score, intracutaneous versus transdermal administration; format: in vivo, BALB/c mouse; design: Skin irritation score Intracutaneous administration: key to the marks not given beside the values; conditions: for Skin irritation score Transdermal administration: 50 μL of acetone solution (50%) applied transdermally
[3] = tested on: MHC Class II molecule of the lymph cell; experiment: Expression of MHC Class II molecule of lymph cells by flow cytometry after transdermal administration of adjuvant; format: in vivo, BALB/c mouse; conditions: FIG. 1; for number of the lymph cells expressing an MHC Class II molecule: 50 μL of acetone solution (50%) applied transdermally to shaved abdomen, lymph node five days later
[4] = tested on: OVA specific IgG antibody; experiment: OVA specific IgG antibody titer, microneedle coated with antigen emulsion; format: in vivo, BALB/c mouse; conditions: microneedle coated with emulsion antigen solution:alcohol:Tween 80 1:1:0.01, OVA 0.1 mg/patch, two hours; FIG. 5
Method: In addition, in microneedle (OVA+lauryl alcohol or OVA+oleyl alcohol) group, emulsion [antigen solution:lauryl alcohol or oleyl alcohol:surfactant (Tween 80)=1:1:0.01] was coated on the needle of the microneedle and punctured it for two hours. Administration was carried out 0, 2 and 4 weeks later, and blood collection was carried out 2, 4 and 5 weeks later, and OVA specific IgG antibody titers were measured by ELISA.

[5] = tested on: OVA specific IgG antibody; experiment: OVA specific IgG antibody titer, antigen-coated microneedle after lauryl alcohol applied to skin; format: in vivo, hairless rat; conditions: LA applied to skin before puncture with OVA-coated microneedle (2 mg/patch, two hours); FIG. 3
Method: OVA was prepared in the abdomen of the male hairless rat of seven to eight weeks old to give 2 mg/patch, and in the microneedle group, the needle part of the microneedle was coated with an antigen and 5% polyvinyl alcohol liquid, and physiological saline was dropped on the skin side, and punctured for two hours. In addition, in microneedle+lauryl alcohol group, lauryl alcohol was applied to skin beforehand, physiological saline was dropped on the skin side, and the needle of the microneedle coated with the above-described antigen and 5% polyvinyl alcohol liquid was punctured for two hours. Administration was carried out 0, 2 and 4 weeks later, and blood collection was carried out 2, 4 and 5 weeks later, and OVA specific IgG antibody titers were measured by ELISA.

OVA = experiment: Antibody titer after oral mucosal administration of OVA plus LA emulsion; format: in vivo, BALB/c mouse; conditions: OVA 2500 μg/head, LA groups (20) and (50), boost after one week, blood after two weeks; FIG. 7
[6] = tested on: OVA specific IgG antibody; experiment: OVA specific IgG antibody titer, microneedle coated with antigen emulsion; format: in vivo, hairless rat; conditions: microneedle coated with emulsion antigen solution:oil or alcohol:Tween 80 1:1:0.01, OVA 2 mg/patch, two hours; FIG. 4
Method: OVA was prepared in the abdomen of the male hairless rat of seven to eight weeks old to give 2 mg/patch, and in the microneedle (OVA+5% polyvinyl alcohol) group, the needle part of the microneedle was coated with an antigen and 5% polyvinyl alcohol liquid [mixed in antigen solution:10% polyvinyl alcohol=1:1], and punctured for two hours. In addition, in microneedle (OVA+olive oil) or (OVA+lauryl alcohol) group, emulsion [antigen solution:olive oil or lauryl alcohol:surfactant (Tween 80)=1:1:0.01] was coated on the needle of the microneedle and punctured it for two hours. Administration was carried out 0, 2 and 4 weeks later, and blood collection was carried out 2, 4 and 5 weeks later, and OVA specific IgG antibody titers were measured by ELISA.

influenza H3N2 = experiment: Antibody titer after transnasal administration of influenza H3N2 antigen plus LA; conditions: influenza H3N2 1 μg/head, antigen solution:LA:Tween 80 9:1:0.05; FIG. 6
Method: To a male BALB/c mouse of seven to eight weeks old, under inhalation anesthesia (Sevofrane) with matching with breathing, 50 μL of antigen (influenza H3N2 (Biogenesis company): 1 μg/head) was administered to a nose by dripping (transnasal (antigen)). The antigen+LA, [mixed in antigen solution:LA:surfactant (Tween 80)=9:1:0.05] was administered to a nose by dripping (transnasal (antigen+LA)).
In addition, in the intracutaneous treatment group, the abdomen was shaved under Nembutal anesthesia, 50 mL of antigen (influenza H3N2: 0.07 μg/head) was administered intracutaneously (intracutaneous (antigen)). The antigen+LA, [mixed in antigen solution:LA:surfactant (Tween 80)=1:1:0.01] was administered intracutaneously (intracutaneous (antigen+LA)). Boost was made in the same condition 2 and 4 weeks after the first time administration, and blood was collected from fundus after 2, 4 and 5 weeks and antibody titers were measured.

[7] = tested on: OVA specific IgG antibody; experiment: OVA specific IgG antibody titer by ELISA, OVA/LA emulsion with microneedle, skin abrading or iontophoresis; format: in vivo, BALB/c mouse; conditions: FIG. 2
Method: OVA was prepared to give 100 μg/head, and to the OVA alone group, OVA aqueous solution was applied, and in the group in which lauryl alcohol (LA) was used in combination, the solution in which OVA solution, LA and Tween 20 (emulsifier) was mixed in the ratio of 1:1:0.01 which was emulsified was prepared and used. In the microneedle application group, 1 cm^2 of a microneedle (needle length: about 200 μm, 400 needles/cm^2) was punctured to abdominal skin that had been shaved beforehand, thereafter 50 μL of the above-mentioned emulsion solution was applied immediately. In addition, in skin abrading treatment group, skin was abraded five times using 3M RED Dot™ 2236 instead of a microneedle, thereafter 50 μL of the emulsion solution was applied. In iontophoresis application group, 50 μL of the emulsion solution was applied to shaved abdominal skin, thereafter an iontophoresis preparation (a non-woven fabric preparation: Ag, Ag/AgCl 1 cm^2) in which physiological saline was impregnated to the non-woven fabric was affixed in the applied part, and a direct current (0.4 mA/patch) was applied for one hour. Administration was carried out 0, 2 and 4 weeks later, and blood collection was carried out 2, 4 and 5 weeks later, and OVA specific IgG antibody titers were measured by ELISA.

With polyethylene glycol monolaurate as the compound, how does the “Antibody titer (×10^4)” value [1] read?
The value was 0.9 ×10^4.

And the “Skin irritation score Transdermal administration” value [2]?
The value was “not detected”.

For sorbitan monolaurate, which “number of the lymph cells expressing an MHC Class II molecule” value (from here on “number”) [3] is on record?
Its value is “remarkable increase”.

What about the “Skin irritation score Transdermal administration” value [2] of the same compound?
Its value is “not detected”.

For `CC(C)CCCCCCCCCCCCCCCO` [Isostearyl alcohol, isostearyl alcohol], which “Antibody titer (×10^4)” value [1] is on record?
Its value is 1.3 ×10^4.

And the “number” value [3]?
The value was “remarkable increase”.

And the “Skin irritation score Transdermal administration” value [2]?
Its value is “not detected”.

With sorbitan monooleate as the compound, how does the “number” value [3] read?
The value was “remarkable increase”.

Which “Antibody titer (×10^4)” value [1] does the source give for `CCCCCCCC/C=C\CCCCCCCCO` [Oleyl alcohol, oleyl alcohol] here?
Its value is 2.1 ×10^4.

What about the “immune response of the antigen IgG” value [1] of the same compound?
The value was “highest immune response”.

And the “number” value [3]?
Its value is “remarkable increase”.

What about the “OVA specific IgG antibody titer” value [4] of the same compound?
Its value is “remarkably increased”.

And the “Skin irritation score Intracutaneous administration” value ([2]; mouse, in vivo)?
Its value is “+++”.

With `CCCCCCCCCCCCO` [Lauryl alcohol, lauryl alcohol] as the compound, how does the “OVA specific IgG antibody titer” value [5] read?
Its value is “remarkably increased”.

And the “Antibody titer (×10^4)” value [1]?
The value was 2.1 ×10^4.

What about the “immune response of the antigen IgG” value [1] of the same compound?
Its value is “highest immune response”.

And the “number” value [3]?
The value was “remarkable increase”.

And the “adjuvant effect (MHC Class II expression), comparison among adjuvants” value ([3]; transdermal administration)?
Its value is “most remarkable”.

What about the “antibody titer, oral mucosal administration” value (OVA) of the same compound?
The value was “increase of the antibody titer was observed depending on the LA concentration”.

And the “OVA specific IgG antibody titer” value [4]?
Its value is “remarkably increased”.

And the “Skin irritation score Transdermal administration” value [2]?
The value was “not detected”.

What about the “OVA specific IgG antibody titer” value [6] of the same compound?
The value was “remarkably increased”.

And the “antibody titer, transnasal (antigen+LA) versus antigen alone” value (influenza H3N2)?
The value was “increase of the antibody titer was observed”.

And the “antigen specific IgG, iontophoresis (IP+LA)” value ([7]; OVA 100 μg/head, OVA:LA:Tween 20 1:1:0.01 emulsion, 0.4 mA/patch for one hour, four weeks later)?
Its value is “highest immune response”.

What about the “antigen specific IgG, skin abrading pre-treatment (abrading+LA)” value ([7]; OVA 100 μg/head, emulsion applied after abrading, four weeks later) of the same compound?
Its value is “high immune response”.

And the “antigen specific IgG, microneedle (microneedle+LA)” value ([7]; OVA 100 μg/head, emulsion applied after microneedle puncture, four weeks later)?
Its value is “high immune response”.

What about the “antibody titer compared to antigen administered alone” value ([7]; lauryl alcohol used together with OVA) of the same compound?
The value was “significant increase”.

With `CCCCCCCC/C=C\CCCCCCCC(=O)O` [oleic acid] as the compound, how does the “number” value [3] read?
Its value is “remarkable increase”.

What does the source list for `CCCCCCCCCCC(CO)CCCCCCCC` (stereo not drawn) [Octyl dodecanol, octyl dodecanol]?
Antibody titer (×10^4) [1]: 0.6 ×10^4; Skin irritation score Transdermal administration [2]: not detected
